Results as given in ChEMBL document CHEMBL1130521, “A conformational study of ligands for omega modulatory sites of GABAa receptors by NOESY NMR spectroscopy and distance geometry” (Bioorg Med Chem Lett, 1997).

Legend:
[1] = target: T1, Gamma-aminobutyric acid receptor subunit alpha-5 (Homo sapiens, UniProt P31644); assay: Inhibition of [3H]flumazenil binding to recombinant GABA-A receptor alpha-5 subunit in cerebellum; type: tissue-based
T1 sequence (P31644 whole entry): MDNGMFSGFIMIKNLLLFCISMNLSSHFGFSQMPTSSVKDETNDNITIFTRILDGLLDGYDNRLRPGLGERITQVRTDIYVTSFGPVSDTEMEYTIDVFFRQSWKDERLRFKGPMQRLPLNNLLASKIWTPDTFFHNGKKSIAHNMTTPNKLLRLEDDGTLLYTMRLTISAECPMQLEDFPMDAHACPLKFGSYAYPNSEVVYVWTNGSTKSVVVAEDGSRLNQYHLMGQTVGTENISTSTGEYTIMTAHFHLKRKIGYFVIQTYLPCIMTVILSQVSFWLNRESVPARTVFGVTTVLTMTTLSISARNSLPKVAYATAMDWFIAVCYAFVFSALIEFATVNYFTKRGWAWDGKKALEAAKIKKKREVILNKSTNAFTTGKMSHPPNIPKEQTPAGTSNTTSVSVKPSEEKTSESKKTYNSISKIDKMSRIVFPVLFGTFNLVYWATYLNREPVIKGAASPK

[2] = target: T1, Gamma-aminobutyric acid receptor subunit alpha-5; assay: Inhibition of [3H]flumazenil binding to recombinant GABA-A receptor alpha-5 subunit in spinal cord; type: tissue-based

IC50 [1]: 2.7 nM | IC50 [2]: 4.6 nM
SMILES: CCCC(=O)N(C)Cc1c(-c2ccc(Cl)cc2)nc2ccccn12
